Common to all, as to type: in vivo
Test [1] relates to soybean VAEs. Description: Particle bombardment of soybean VAEs with Dicot Bomb 9 and glyphosate selection. The following applies: for TF / Rooting Shoots: BOMB 9, glyphosate selection. The protocol:
For particle bombardment experiments, gold-DNA “bead prep” was prepared by first washing 50 mg 0.6 um gold microcarriers (BioRad part #1652262) in 1 ml 100% ethanol and sonicating for 1 min 45 kHz. Gold was pelleted by centrifugation at 5000 rpm in microfuge (˜2300×g) and ethanol removed. Gold was then re-suspended in 1 ml 100% ethanol and stored at −20 C until use. To precipitate DNA onto beads, the 50 mg gold/1 ml ethanol stock was sonicated for 1 min 45 kHz. 42 ul of this stock was transferred to an Eppendorf tube, then pelleted by centrifugation at 2500 rpm for 10 seconds, after which ethanol was removed. 500 uL sterile water was added and mixture sonicated 1 min 45 kHz. Gold was again pelleted by centrifugation at 2500 rpm for 10 seconds and water removed. 25 ul sterile water was then added, followed by sonication for 1 min 45 kHz. 2.6, 1.3, or 0.65 ug VS225 DNA was added, then sterile water to bring volume up to 245 ul. 250 ul cold 2.5 M CaCl2 was added, followed by 50 ul 0.1 M spermidine. Solution was mixed by low speed vortexing. Tube was incubated on ice for approximately 1 hour with gentle inversions every 5-10 minutes. DNA/gold was pelleted at 1000 rpm (˜100×g) for 2 min and supernatant removed. Pellet was then washed with 1 ml 100% EtOH w/pipette tip, then pelleted again at 1000 rpm (˜100×g) for 2 min and supernatant removed 36 ul 100% EtOH was added to tube and gold completely re-suspended with low-speed vortexing. Bead prep was stored at −20 C until used, with 5 ul used per bombardment. This corresponds to 360, 180, or 90 ng DNA per blast; 290 ug gold per blast (1.2, 0.6, or 0.3 ng DNA per ug gold).
For blasting Soybean VAEs, meristem explants were incubated in 20% PEG4000 with 60 mg/L Captan and 30 mg/L Bravo for 1 hour, rinsed thoroughly, and pre-cultured overnight on WCIC EJW1 media at 28 C 16/8 photoperiod.
After preculture, Soybean VAEs were targeted on a 12% xantham gum holding media, 20 per plate, with meristems oriented upward. Prior to particle bombardment on the PDS-1000 helium gun, stop screens (BioRad part 1652336), 1350 psi rupture disks (BioRad 1652330), and macrocarrier holders (BioRad part 1652322) were sanitized for 1 min in 70% EtOH. Carrier sheets (BioRad part 1652335) were sanitized for 1 min in isopropanol. 1350 psi rupture disk was placed into the rupture disk retaining cap and screwed into the gas acceleration chamber. Stop screen was placed in the brass adjustable nest. 5 uL bead prep was deposited on the center of each carrier sheet loaded onto the macrocarrier holder and allowed to air dry. Macrocarrier holder was then turned over to place above retaining screen on brass nest. Macrocarrier cover lid was screwed on and completed macrocarrier launch assembly was placed on shelf directly under rupture disk. Gap distance between rupture disk and launch assembly was approximately 1 cm. Lid from target plate was removed and plate was placed on shelf 2 (2nd shelf from macrocarrier launch assembly) which is approximately 6 cm from assembly. Helium tank, PDS-1000, and vacuum were all turned on. Door was closed and vacuum applied to ˜27-28 In Hg. Fire button was depressed and held down until blast was complete. Vacuum was then released and target plate removed.
After blasting, soybean VAEs were detargeted onto WCIC EJW1 media and allowed to rest overnight at 28 C 16/8 photoperiod. Explants were then placed on WCIC Spectinomycin Selection Medium and placed in 28 C 16/8 photoperiod.
Alternate selectable markers for soybean VAE transformation—We applied soybean VAE technology to glyphosate selection, and were able to recover T0 plants from particle bombardment using Dicot Bomb 9 (FIG. 29) and the Goosegrass EPSP; where the explants were selected on 75 uM glyphosate; then rooted on 25 uM glyphosate. […] Our glyphosate selection work focused on reducing this cytokinin load during the preculture/rest phase. The T0 rooted shoots tested positive for GUS and RFP (tdTomato).

The test system of test [2] is soybean VAEs. The test is described as follows: Agrobacterium-mediated transformation of soybean meristem explants / VAEs with TDZ in co-culture. The protocol: Soybean seeds were surface sanitized in 20% Clorox (from concentrated Clorox with 8.25% sodium hypochlorite) for 5 minutes, rinsed 5× with sterile RO water, and then primed by allowing them to sit for 2 hrs at room temperature. Seeds were then imbibed in WCIC Bean Germination Media (BGM) overnight. Meristem explants were prepared the next day by removing seed coats and cotyledons from the seed using either a manual process or in a wet mill consisting of a series of rollers and spray nozzles. Meristem explants were then either dried under a variety of conditions, or used fresh. Drying of explants was performed in either a Laminar Flow Hood (LFH) with explants resting on a filter paper exposed to air, or in a BryAir seed dryer (model VFB-3-E-DXA) on filter paper. For internal moisture determination, 0.5-1 g of dried material was placed in a 103 C oven for 16-18 hours, contents allowed to cool, then re-weighed. For use in transformation, dried explants—designated as soy VAEs (value added explants) were incubated 1-2 hours at room temperature in 20% PEG4000 (dissolved in sterile distilled water) supplemented with 60 mg/L Captan fungicide and 30 mg/L Bravo (Daconil) fungicide. Explants were then rinsed 5-6× with sterile distilled water and inoculated with Agrobacterium. […] FIGS. 3A and 3B show VAEs (3A) as compared to explants directly from just dry seed (3B).
Agrobacterium inoculum was prepared under laminar flow hood from overnight cultures derived from 20% glycerol stocks stored at −80 C. Glycerol stocks were allowed to thaw, and approximately 50 ul stock was added to 50 ml LB with 50 mg/L kanamycin (GV3101 strain); or 250 ul stock to 50 ml LB with 50 ppm kanamycin and 100 ppm carbenicillin (AGL1 strain). The VS225 binary construct with pVS1 origin of replication conferred resistance to kanamycin, and had aadA, gus, and cas9 genes on its T-DNA. The pWI-1000 binary construct with pVS1 origin of replication conferred resistance to kanamycin, and had aadA and gus on its T-DNA. The pWI-1000 dsRED binary construct with pVS1 origin of replication conferred resistance to kanamycin, and had aadA, gus, and rfp (dsRED) on its T-DNA. Cultures were grown overnight at 28° C. 200 RPM on orbital shaker (Innova 4400 incubator shaker). The next morning optical densities of cultures at 660 nm (OD660) were checked (Hach DR5000™ Spectrophotometer) under laminar flow and then centrifuged at 2619×g for 20 min (H6000A rotor on Sorvall® RC3B centrifuge). Pelleted bacteria was re-suspended in WCIC INO media under laminar flow, diluted to OD660 0.3-0.45, and incubated at room temperature 150 RPM until used (VWR orbital shaker). In some experiments acetosyringone was added to inoculum at 100 uM to help induce the vir operon.
Meristem explants were inoculated under laminar flow in inverted PlantCon® (approximately 25 ml inoculum per PlantCon®) (MP Biomedicals, LLC Cat. 26-722-06) and sonicated for 20 s, 45+/−2 kHz (L&R Sonicator Quantrex 450) in a 0.1% Triton X-100 water bath (Triton X-100 from Sigma #9002-93-1). Inoculated explants were incubated with inoculum for additional 30 min at room temperature at 75 RPM. Excess inoculum was then removed, and explants co-cultured in PlantCons® with 2.5 ml WCIC INO media supplemented with 50 mg/L nystatin, 10 mg/L TBZ, and 95 uM lipoic acid at 23 C 16/8 photoperiod. In some experiments this co-culture media was further supplemented with 1 mg/L TDZ in attempt to multiply meristematic cells and possibly suppress apical dominance. In some experiments acetosyringone was added to inoculum and/or co-culture medium at 100 uM as an inducing agent for the virulence cascade in the vir operon.
After co-culture (3-5 days) explants were transferred to 200 ppm spectinomycin WCIC B5 media. When using the GV3101 strain we supplemented this selection media with 200-400 mg/L carbenicillin to knock Agrobacterium overgrowth down. […]

Test [3] deals with non-inoculated soybean VAEs. Description: Spectinomycin selection titration on non-inoculated soybean VAEs. To be noted: at 5 weeks. The source says:
We ran a titration of spectinomycin selection levels on non-inoculated soybean VAEs, and could see visible bleaching and suppression of shooting and rooting as low as 50 ppm at 5 weeks (FIG. 5).

In the test with soybean VAEs [1] (preculture and rest OR (3 ppm BAP)), `c1ccc(CNc2ncnc3nc[nH]c23)cc1` [BAP, 6-benzylaminopurine] returned a TF of 0.3%. In the test on soybean VAEs [1] (preculture and rest OR (3 ppm BAP), 380 initial explants), the “Rooting Shoots” value amounted to 1.

On to `O=C(Nc1ccccc1)Nc1cnns1` [TDZ, thidiazuron], for which the TF is on record as 0.6% with soybean VAEs [2] (VAE batch S16b, 5 h dry in 20 C Bryair to 8.3% moisture, 3025N, TDZ in co-culture); 1.4% in the test on soybean VAEs [2] (VAE batch S18, 6 h dry in 20 C Bryair to 27% moisture, LD10-30087, TDZ in co-culture); 3.3% in the test with soybean VAEs [2] (VAE batch S19, 6 h dry in 20 C Bryair to 21% moisture, LD10-30092, TDZ in co-culture); 1.2% with soybean VAEs [2] (VAE batch S20, 6 h dry in 20 C Bryair to 18% moisture, LD10-30094, TDZ in co-culture); 4.4% in the test with soybean VAEs [2] (VAE batch S26, 6 h dry in 20 C Bryair, W82, TDZ in co-culture (Table 12)); 2.1% in the test with soybean VAEs [2] (VAE batch S27, 5 h dry in 20 C Bryair, 3849N, TDZ in co-culture). Moreover, the TF with soybean VAEs [2] (W82 VAEs, 20 C Bryair 5.5 h, 1 ppm TDZ in co-culture, second set of replicates) is on record as 3.2%; with soybean VAEs [2] (W82 VAEs, 20 C Bryair 6 h, 1 ppm TDZ in co-culture, first set of replicates (Table 13b)), 5.5%; in the test on soybean VAEs [2] (W82 VAEs, LFH 20.5 h, 1 ppm TDZ in co-culture, second set of replicates), 2.1%; with soybean VAEs [2] (W82 VAEs, various drying conditions, 1 ppm TDZ in co-culture, summary of replicates), 3.8%; with soybean VAEs [2] (freshly excised Williams82, fresh sample of explants dried to generate S17 series, TDZ 1 mg/L in co-culture) it was 12.6%; with soybean VAEs [1] (preculture EJW1 (1 ppm TDZ), rest EJW0 (no PGRs)) it was 0.4%. Further, in the test on soybean VAEs [1] (preculture and rest EJW3 (0.5 ppm TDZ)), the TF came to 0.5%. Also, the “# T0 Plants” value is given as 1 in the test with soybean VAEs [2] (VAE batch S16b, 5 h dry in 20 C Bryair to 8.3% moisture, 3025N, TDZ in co-culture, 162 explants); 1 in the test with soybean VAEs [2] (VAE batch S18, 6 h dry in 20 C Bryair to 27% moisture, LD10-30087, TDZ in co-culture, 74 explants); 3 in the test with soybean VAEs [2] (VAE batch S19, 6 h dry in 20 C Bryair to 21% moisture, LD10-30092, TDZ in co-culture, 91 explants); 1 in the test with soybean VAEs [2] (VAE batch S20, 6 h dry in 20 C Bryair to 18% moisture, LD10-30094, TDZ in co-culture, 85 explants); 8 in the test with soybean VAEs [2] (VAE batch S26, 6 h dry in 20 C Bryair, W82, TDZ in co-culture, 182 explants (Table 12)); 6 with soybean VAEs [2] (VAE batch S27, 5 h dry in 20 C Bryair, 3849N, TDZ in co-culture, 289 explants). For the same compound, the “# T0 Plants” value in the test with soybean VAEs [2] (W82 VAEs, 20 C Bryair 5.5 h, 1 ppm TDZ in co-culture, second set of replicates, 126 explants) worked out at 4; with soybean VAEs [2] (W82 VAEs, 20 C Bryair 6 h, 1 ppm TDZ in co-culture, first set of replicates (Table 13b), 182 explants), 10; in the test with soybean VAEs [2] (W82 VAEs, LFH 20.5 h, 1 ppm TDZ in co-culture, second set of replicates, 144 explants), 3; in the test with soybean VAEs [2] (freshly excised Williams82, fresh sample of explants dried to generate S17 series, TDZ 1 mg/L in co-culture, 95 explants) it was 12. Also, in the test on soybean VAEs [2] (W82 VAEs, various drying conditions, 1 ppm TDZ in co-culture, summary of replicates, 452 explants), the “# R0 Plants” value is reported as 17. In addition, the “effect of TDZ in co-culture on transformation” value in the test with soybean VAEs [2] (freshly excised soy meristem explants (S17 series), TDZ 1 mg/L in co-culture) is “apparent benefit”. In addition, the “Rooting Shoots” value amounted to 1 with soybean VAEs [1] (preculture EJW1 (1 ppm TDZ), rest EJW0 (no PGRs), 264 initial explants); 2 in the test on soybean VAEs [1] (preculture and rest EJW3 (0.5 ppm TDZ), 387 initial explants).

As for `O=C(O)CNCP(=O)(O)O` [glyphosate], in the test on soybean VAEs [1] (preculture and resting media conditions of the spectinomycin protocol (EJW1 with TDZ), particle bombardment), the “plant recovery with glyphosate selection” value is on record as “yielded no plants”.

For `CN[C@@H]1[C@H](O)[C@H](NC)[C@H]2O[C@@]3(O)C(=O)C[C@@H](C)O[C@H]3O[C@@H]2[C@H]1O` [spectinomycin], in test [3], the “lowest spectinomycin level with visible bleaching and suppression of shooting and rooting” value was 50 ppm.

Source of the values: patent US11266086B2, “Efficient plant transformation method” (Wisconsin Alumni Research Foundation, priority 2018, dated 2022).
